Experimental data reported in patent US20070010670A1, “Nitrogen-containing fused ring compounds and use thereof” (Japan Tobacco Inc., priority 2004, published 2007).

The compounds below were run against T1, CYP2C9 (Homo sapiens, UniProt P11712) (assay: CYP inhibitory test using human liver microsome). Settings: model substrate diclofenac, 37° C. 10 min, read-out: CYP2C9 inhibition IC50.
T1 construct: Human liver microsome (20 mg protein/mL, 5 μL, Xenotech LLC, purchased from Lenexa KS); tissue Xenotech LLC; host or cells: human liver microsome
Assay type: in vitro ADME
Protocol: Human liver microsome (20 mg protein/mL, 5 μL, Xenotech LLC, purchased from Lenexa KS) was suspended in 100 mM potassium phosphate buffer (70 μL, pH 7.4), mixed with a solution (0.5 μL) of the Example compound dissolved in DMSO and preincubated at 37° C. for 5 min. NADPH producing system coenzyme solution (β-nicotinamide adenine dinucleotide phosphate: 5.2 mM, D-glucose-6-phosphate: 13.2 mM, magnesium chloride: 13.2 mM, glucose-6-phosphate dehydrogenase: 1.8 U/mL) 25 μL, and a model substrate (CYP3A4: midazolam 1 mM, CYP2D6: bufuralol 1 mM, CYP2C9: diclofenac 2 mM) 0.5 μL dissolved in DMSO were added to start the reaction. After incubation at 37° C. for 10 min., acetonitrile (200 μL) containing an internal standard substance (propranolol 1 μM) was added and the mixture was centrifuged (room temperature, 3000 rpm, 20 min). The amount of the metabolite produced from each model substrate in the supernatant was measured by high performance liquid chromatography/mass spectrometry (LC/MS/MS) and each CYP enzyme activity was determined. The concentration showing 50% inhibition (IC50) was calculated relative to the enzyme activity without addition of Example compound (DMSO 0.5 μL added) as 100%.

T1 sequence (P11712 whole entry): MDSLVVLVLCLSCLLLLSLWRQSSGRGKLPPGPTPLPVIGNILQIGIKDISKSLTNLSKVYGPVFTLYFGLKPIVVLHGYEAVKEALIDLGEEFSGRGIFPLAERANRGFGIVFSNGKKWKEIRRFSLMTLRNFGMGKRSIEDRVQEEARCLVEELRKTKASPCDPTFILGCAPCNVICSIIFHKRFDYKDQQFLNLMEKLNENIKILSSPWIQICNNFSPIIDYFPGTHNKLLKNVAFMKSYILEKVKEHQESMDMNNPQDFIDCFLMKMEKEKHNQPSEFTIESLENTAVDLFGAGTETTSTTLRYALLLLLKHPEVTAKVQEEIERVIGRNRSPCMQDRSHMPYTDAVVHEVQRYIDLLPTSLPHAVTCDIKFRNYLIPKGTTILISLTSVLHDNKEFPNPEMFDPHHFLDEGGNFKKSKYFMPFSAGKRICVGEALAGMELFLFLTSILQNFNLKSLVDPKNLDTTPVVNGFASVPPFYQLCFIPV

| IC50 | SMILES |
| --- | --- |
| 20 µM | O=C(c1cc(Cl)c(O)c(Cl)c1)N1CCOc2cc([N+](=O)[O-])ccc21 [Example 70, (3,5-dichloro-4-hydroxyphenyl)-(7-nitro-2,3-dihydrobenzo[1,4]oxazin-4-yl)-methanone] |
| > 50 µM | CCOC(=O)COc1c(Cl)cc(C(=O)N2CCOc3ccccc32)cc1Cl [Example 91, ethyl [2,6-dichloro-4-(2,3-dihydrobenzo[1,4]oxazine-4-carbonyl)phenoxy]acetate] |
| 10 µM | O=C(c1cc(Cl)c(O)c(Cl)c1)N1CCOc2ccc3ccccc3c21 [Example 16, (3,5-dichloro-4-hydroxyphenyl)-(2,3-dihydronaphtho[2,1-b][1,4]oxazin-1-yl)-methanone] |
| > 50 µM | O=C(O)c1ccc(C(=O)N2CCOc3ccccc32)cc1 [Example 47, 4-(2,3-dihydrobenzo[1,4]oxazine-4-carbonyl)benzoic acid] |
| 15 µM | Nc1ccc2c(c1)OCCN2C(=O)c1cc(Cl)c(O)c(Cl)c1 [Example 71, (7-amino-2,3-dihydrobenzo[1,4]oxazin-4-yl)-(3,5-dichloro-4-hydroxyphenyl)-methanone] |
| > 50 µM | O=C(O)c1ccc2c(c1)N(C(=O)c1cc(Cl)c(O)c(Cl)c1)CCO2 [Example 57, 4-(3,5-dichloro-4-hydroxybenzoyl)-3,4-dihydro-2H-benzo[1,4]oxazine-6-carboxylic acid] |
| 16 µM | O=C(c1cc(Cl)c(O)c(Cl)c1)N1CCOc2ccc(Cl)cc21 [Example 51, (6-chloro-2,3-dihydrobenzo[1,4]oxazin-4-yl)-(3,5-dichloro-4-hydroxyphenyl)-methanone] |
| > 50 µM | CC(=O)N1CCN(C(=O)c2cc(Cl)c(O)c(Cl)c2)c2ccccc21 [Example 73, 1-[4-(3,5-dichloro-4-hydroxybenzoyl)-3,4-dihydro-2H-quinoxalin-1-yl]-ethanone] |
| 20 µM | O=C(c1cc(Cl)c(O)c([N+](=O)[O-])c1)N1CCOc2ccccc21 [Example 31, (3-chloro-4-hydroxy-5-nitrophenyl)-(2,3-dihydrobenzo[1,4]oxazin-4-yl)-methanone] |
| 11 µM | O=C(c1cc(Cl)c(O)c(Cl)c1)N1CCOc2cccc(O)c21 [Example 89, (3,5-dichloro-4-hydroxyphenyl)-(5-hydroxy-2,3-dihydrobenzo[1,4]oxazin-4-yl)-methanone] |
| 19 µM | O=C(c1cc(Cl)c(O)c(Cl)c1)N1CCSc2ccccc21 [Example 8, (3,5-dichloro-4-hydroxyphenyl)-(2,3-dihydrobenzo[1,4]thiazin-4-yl)-methanone] |
| > 50 µM | O=C(c1ccc(O)cc1)N1CCOc2ccccc21 [Example 88, (2,3-dihydrobenzo[1,4]oxazin-4-yl)-(4-hydroxyphenyl)-methanone] |
| 11 µM | O=C(c1cc(Br)c(O)c(Br)c1)N1CCOc2ccc(Cl)cc21 [Example 82, (6-chloro-2,3-dihydrobenzo[1,4]oxazin-4-yl)-(3,5-dibromo-4-hydroxyphenyl)-methanone] |
| > 50 µM | COc1cc(C(=O)N2CCOc3ccccc32)cc(Cl)c1O [Example 40, (3-chloro-4-hydroxy-5-methoxyphenyl)-(2,3-dihydrobenzo[1,4]oxazin-4-yl)-methanone] |
| > 50 µM | O=C(c1cc(Cl)c(O)c(Cl)c1)N1CCCOc2ccccc21 [Example 95, (3,5-dichloro-4-hydroxyphenyl)-(7,8-dihydro-6H-5-oxa-9-azabenzocyclohepten-9-yl)-methanone] |
| > 50 µM | O=C(c1cc(F)c(O)c(F)c1)N1CCOc2ccccc21 [Example 6, (3,5-difluoro-4-hydroxyphenyl)-(2,3-dihydrobenzo[1,4]oxazin-4-yl)-methanone] |

| IC50 | SMILES |
| --- | --- |
| > 50 µM | O=C(c1cc(Cl)c(O)c(Cl)c1)N1CCOc2ccc(O)cc21 [Example 19, (3,5-dichloro-4-hydroxyphenyl)-(6-hydroxy-2,3-dihydrobenzo[1,4]oxazin-4-yl)-methanone] |
| > 50 µM | O=C(O)c1ccccc1C(=O)N1CCOc2ccccc21 [Example 45, 2-(2,3-dihydrobenzo[1,4]oxazine-4-carbonyl)benzoic acid] |
| 2 µM | O=C(c1cc(I)c(O)c(I)c1)N1CCOc2ccccc21 [Example 5, (2,3-dihydrobenzo[1,4]oxazin-4-yl)-(4-hydroxy-3,5-diiodophenyl)-methanone] |
| 49 µM | O=C(c1cc(Cl)c(O)c(Cl)c1)N1CCOc2ccc([N+](=O)[O-])cc21 [Example 67, (3,5-dichloro-4-hydroxyphenyl)-(6-nitro-2,3-dihydrobenzo[1,4]oxazin-4-yl)-methanone] |
| 33 µM | CN1CCN(C(=O)c2cc(Cl)c(O)c(Cl)c2)c2ccccc21 [Example 74, (3,5-dichloro-4-hydroxyphenyl)-(4-methyl-3,4-dihydro-2H-quinoxalin-1-yl)-methanone] |
| 13 µM | O=C(c1cc(Br)c(O)c(Br)c1)N1CCOc2ccc(F)cc21 [Example 79, (3,5-dibromo-4-hydroxyphenyl)-(6-fluoro-2,3-dihydrobenzo[1,4]oxazin-4-yl)-methanone] |
| 19 µM | O=C(c1cc(Cl)c(O)c(Cl)c1)N1CCOc2ccc(C(F)(F)F)cc21 [Example 85, (3,5-dichloro-4-hydroxyphenyl)-(6-trifluoromethyl-2,3-dihydrobenzo[1,4]oxazin-4-yl)-methanone] |
| 10 µM | CC(C)c1cccc2c1OC(C(C)C)CN2C(=O)c1cc(Cl)c(O)c(Cl)c1 (stereo not drawn) [Example 32, (3,5-dichloro-4-hydroxyphenyl)-(2,8-diisopropyl-2,3-dihydrobenzo[1,4]oxazin-4-yl)-methanone] |
| 13 µM | Cc1ccc2c(c1)N(C(=O)c1cc(Br)c(O)c(Br)c1)CCO2 [Example 81, (3,5-dibromo-4-hydroxyphenyl)-(6-methyl-2,3-dihydrobenzo[1,4]oxazin-4-yl)-methanone] |
| 27 µM | Nc1ccc2c(c1)N(C(=O)c1cc(Cl)c(O)c(Cl)c1)CCO2 [Example 68, (6-amino-2,3-dihydrobenzo[1,4]oxazin-4-yl)-(3,5-dichloro-4-hydroxyphenyl)-methanone] |
| 21 µM | O=C(c1ccc(O)c(C(F)(F)F)c1)N1CCOc2ccccc21 [Example 39, (2,3-dihydrobenzo[1,4]oxazin-4-yl)-(4-hydroxy-3-trifluoromethylphenyl)-methanone] |
| 18 µM | Nc1ccc2c(c1)CCN2C(=O)c1cc(Cl)c(O)c(Cl)c1 [Example 78, (5-amino-2,3-dihydroindol-1-yl)-(3,5-dichloro-4-hydroxyphenyl)-methanone] |
| 12 µM | Oc1c(Cl)cc(C(=S)N2CCOc3ccccc32)cc1Cl [Example 11, (3,5-dichloro-4-hydroxyphenyl)-(2,3-dihydrobenzo[1,4]oxazin-4-yl)-methanethione] |
| > 50 µM | O=C(c1ccc(O)c(Cl)c1)N1CCOc2ccccc21 [Example 1, (3-chloro-4-hydroxyphenyl)-(2,3-dihydrobenzo[1,4]oxazin-4-yl)-methanone] |
| > 50 µM | O=C(c1cnc(O)c(Cl)c1)N1CCOc2ccccc21 [Example 29, (5-chloro-6-hydroxypyridin-3-yl)-(2,3-dihydrobenzo[1,4]oxazin-4-yl)-methanone] |
| > 50 µM | COC(=O)c1ccc(C(=O)N2CCOc3ccccc32)cc1 [Example 46, methyl 4-(2,3-dihydrobenzo[1,4]oxazine-4-carbonyl)benzoate] |

| SMILES | IC50 |
| --- | --- |
| O=C(c1cc([N+](=O)[O-])c(O)c([N+](=O)[O-])c1)N1CCOc2ccccc21 [Example 30, (2,3-dihydrobenzo[1,4]oxazin-4-yl)-(4-hydroxy-3,5-dinitrophenyl)-methanone] | > 50 µM |
